Usually EC50 stands for the concentration that produces a half-maximal response.

SMILES strings stand for the structures. Read-outs that look alike come from different tables or passages of the source. Numbered stars: 1 amine (or outer) side, 2 acyl side, 3 side chain; on linkers, the order of the positions; unused ones are H or OH. Bridge positions count the residues as written; N and C are the ends. Square brackets hold non-standard residues; d marks the D form. Peptide text beside a SMILES is read from it. * marks the point of attachment. C20 diacid = O=C(O)CCCCCCCCCCCCCCCCCCC(=O)*; γGlu = O=C(O)[C@H](CCC(=O)[*:2])N[*:1]; NMeI = CC[C@H](C)[C@H](NC)C(=O)O; Sar = CNCC(=O)O

Data set [1] is described as follows: Solubility assessment (turbidity absorbance at 325 nm). The format is physicochemical. Particulars: stock 2 mg/ml diluted 1:1, ambient temperature (typically 25°C), n=1; for Solubility, Acetate buffer pH 4: 100 mM acetate buffer pH 4.0; for Solubility, Acetate buffer pH 5: 100 mM acetate buffer pH 5.0; for Solubility, Histidine buffer pH 6: 100 mM histidine buffer pH 6.0; for Solubility, Histidine buffer pH 7: 100 mM histidine buffer pH 7.0; for Solubility, Phosphate buffer pH 6: 100 mM phosphate buffer pH 6.0; for Solubility, Phosphate buffer pH 7: 100 mM phosphate buffer pH 7.0; for Solubility, Phosphate buffer pH 7.5: 100 mM phosphate buffer pH7.5. The essentials:
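Peptide stock (2 mg/ml, water pH 2.5) diluted 1:1 into 100 mM acetate (pH 4.0, 5.0), histidine (pH 6.0, 7.0) or phosphate (pH 6.0–7.5) buffer; absorbance at 325 nm read at about 25°C, n=1. A325 ≤ 0.02 taken as solubility ≥ 1 mg/ml.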

The target of data set [2] is T1, human amylin receptor 3 (hAMYR3) consisting of hCTR2 co-expressed with human Receptor Activity Modifying Protein 3 (hRAMP3) (Homo sapiens, UniProt O60896+P30988).
T1 construct: expressed in transfected cells
T1 sequence (P30988 25-474): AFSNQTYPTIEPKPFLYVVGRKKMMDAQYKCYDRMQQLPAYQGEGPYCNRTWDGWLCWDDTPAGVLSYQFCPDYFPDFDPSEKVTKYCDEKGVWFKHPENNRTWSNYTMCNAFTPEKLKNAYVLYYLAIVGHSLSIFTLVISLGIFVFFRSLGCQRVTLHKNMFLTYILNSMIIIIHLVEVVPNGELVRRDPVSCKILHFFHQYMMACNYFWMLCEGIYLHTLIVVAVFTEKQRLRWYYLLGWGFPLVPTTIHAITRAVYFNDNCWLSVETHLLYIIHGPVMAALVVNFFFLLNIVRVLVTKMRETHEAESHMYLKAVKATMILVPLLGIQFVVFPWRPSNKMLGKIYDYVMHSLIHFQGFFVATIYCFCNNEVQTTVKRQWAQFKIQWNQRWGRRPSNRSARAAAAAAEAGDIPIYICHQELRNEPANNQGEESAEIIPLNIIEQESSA
T1 sequence (O60896 24-148 partner): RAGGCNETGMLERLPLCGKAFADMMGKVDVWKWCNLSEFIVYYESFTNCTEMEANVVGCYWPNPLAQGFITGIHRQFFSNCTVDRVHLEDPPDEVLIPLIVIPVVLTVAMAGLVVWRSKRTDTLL
The data set is described as follows: hAMYR3 assay: induction of cAMP (AlphaScreen cAMP Assay kit) in COS7 cells expressing hAMYR3. The format is cell-based. In outline:
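Stable COS7 clone co-expressing hCTR2 and hRAMP3, stimulated 15 min at 37° C with increasing peptide in Tyrode buffer pH 7.4 with 100 µM IBMX and 0.1% casein. cAMP measured by AlphaScreen after lysis; EC50 and % efficacy versus pramlintide from 4PL fit.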

The target of data set [3] is T2, human calcitonin receptor (hCTR2) (Homo sapiens, UniProt P30988).
T2 construct: expressed in transfected cells
T2 sequence (P30988 25-474): T1 sequence (P30988 25-474)
The data set can be described thus: hCTR2 assay: induction of cAMP (AlphaScreen cAMP Assay kit) in COS7 cells expressing hCTR2. The format is cell-based. Particulars: cAMP induction in COS7 cells expressing hCTR2; average of a minimum of 3 determinations; read-out: hCTR2 EC50. In outline: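 Functional agonism is measured as cAMP accumulation in a COS7 line stably transfected with hCTR2, lacking endogenous RAMPs. Peptides act for 15 min at 37° C with IBMX present, and curves are fitted with a 4-parameter logistic model.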

For `CC[C@H](C)[C@@H](C(=O)N[C@@H](CC(C)C)C(=O)N[C@@H](CO)C(=O)N[C@@H](CO)C(=O)N[C@H](C(=O)N[C@@H](CCC(=O)O)C(=O)N[C@H](C(=O)NCC(=O)N[C@@H](CO)C(=O)N[C@@H](CCC(=O)O)C(=O)N[C@H](C(=O)N1CCC[C@H]1C(N)=O)[C@@H](C)O)C(C)C)[C@@H](C)O)N(C)C(=O)[C@H](C)NC(=O)CN(C)C(=O)[C@H](Cc1ccccc1)NC(=O)[C@H](CO)NC(=O)[C@H](CO)NC(=O)[C@H](CO)NC(=O)[C@H](CO)NC(=O)[C@H](CCCNC(=N)N)NC(=O)[C@H](Cc1c[nH]cn1)NC(=O)[C@H](CC(C)C)NC(=O)[C@H](Cc1ccccc1)NC(=O)[C@H](CCC(=O)O)NC(=O)[C@H](C)NC(=O)[C@H](CC(C)C)NC(=O)[C@H](CCCNC(=N)N)NC(=O)[C@H](CCC(N)=O)NC(=O)[C@@H](NC(=O)[C@H](C)NC(=O)[C@@H]1CSSC[C@H](NC(=O)[C@H](CCCNC(=N)N)NC(=O)CC[C@H](NC(=O)CCCCCCCCCCCCCCCCCCC(=O)O)C(=O)O)C(=O)NCC(=O)N[C@@H]([C@@H](C)O)C(=O)N[C@@H](C)C(=O)N[C@@H]([C@@H](C)O)C(=O)N1)[C@@H](C)O` [Compound 130, [19CD]-isoGlu-RC()GTATC()ATQRLAEFLHRSSSSF-Gly(Me)-A-Ile(Me)-LSSTEVGSETP-NH2] ({C20 diacid-γGlu}-RCGTATCATQRLAEFLHRSSSSF[Sar]A[NMeI]LSSTEVGSETP-NH2; disulfide 2-7), in data set [1], the “Solubility, Acetate buffer pH 4” value is reported as “SS (SS indicates solubility ≥ 1mg/ml)”; the “Solubility, Acetate buffer pH 5” value is on record as “SS (SS indicates solubility ≥ 1mg/ml)”; the “Solubility, Histidine buffer pH 6” value is recorded as “SS (SS indicates solubility ≥ 1mg/ml)”; the “Solubility, Histidine buffer pH 7” value is recorded as “SS (SS indicates solubility ≥ 1mg/ml)”. Further, in data set [1], the “Solubility, Phosphate buffer pH 6” value is “SS (SS indicates solubility ≥ 1mg/ml)”; the “Solubility, Phosphate buffer pH 7” value is on record as “SS (SS indicates solubility ≥ 1mg/ml)”; the “Solubility, Phosphate buffer pH 7.5” value is “SS (SS indicates solubility ≥ 1mg/ml)”. The compound also displayed an EC50 in data set [2] of 0.15 nM. For the same compound, in data set [3], the EC50 was found to be 0.11 nM.

With `CC[C@H](C)[C@@H](C(=O)N[C@@H](CC(C)C)C(=O)N[C@@H](CO)C(=O)N[C@@H](CO)C(=O)N[C@H](C(=O)N[C@@H](CCC(=O)O)C(=O)N[C@H](C(=O)NCC(=O)N[C@@H](CO)C(=O)N[C@@H](CCC(=O)O)C(=O)N[C@H](C(=O)N1CCC[C@H]1C(N)=O)[C@@H](C)O)C(C)C)[C@@H](C)O)N(C)C(=O)[C@H](C)NC(=O)CN(C)C(=O)[C@H](Cc1ccccc1)NC(=O)[C@H](CO)NC(=O)[C@H](CO)NC(=O)[C@H](CO)NC(=O)[C@H](CO)NC(=O)[C@H](CCCNC(=N)N)NC(=O)[C@H](Cc1c[nH]cn1)NC(=O)[C@H](CC(C)C)NC(=O)[C@H](Cc1ccccc1)NC(=O)[C@H](CCC(=O)O)NC(=O)[C@H](C)NC(=O)[C@H](CC(C)C)NC(=O)[C@H](CCCNC(=N)N)NC(=O)CNC(=O)[C@@H](NC(=O)[C@H](C)NC(=O)[C@@H]1CSSC[C@H](NC(=O)[C@H](CCCNC(=N)N)NC(=O)CC[C@H](NC(=O)CCCCCCCCCCCCCCCCCCC(=O)O)C(=O)O)C(=O)NCC(=O)N[C@@H]([C@@H](C)O)C(=O)N[C@@H](C)C(=O)N[C@@H]([C@@H](C)O)C(=O)N1)[C@@H](C)O` [Compound 131, [19CD]-isoGlu-RC()GTATC()ATGRLAEFLHRSSSSF-Gly(Me)-A-Ile(Me)-LSSTEVGSETP-NH2] ({C20 diacid-γGlu}-RCGTATCATGRLAEFLHRSSSSF[Sar]A[NMeI]LSSTEVGSETP-NH2; disulfide 2-7), in data set [1], the “Solubility, Acetate buffer pH 4” value is reported as “SS (SS indicates solubility ≥ 1mg/ml)”; the “Solubility, Acetate buffer pH 5” value is recorded as “SS (SS indicates solubility ≥ 1mg/ml)”; the “Solubility, Histidine buffer pH 6” value was “SS (SS indicates solubility ≥ 1mg/ml)”; the “Solubility, Histidine buffer pH 7” value is “SS (SS indicates solubility ≥ 1mg/ml)”. Further, in data set [1], the “Solubility, Phosphate buffer pH 6” value was “SS (SS indicates solubility ≥ 1mg/ml)”; the “Solubility, Phosphate buffer pH 7” value is listed as “SS (SS indicates solubility ≥ 1mg/ml)”; the “Solubility, Phosphate buffer pH 7.5” value is given as “SS (SS indicates solubility ≥ 1mg/ml)”. Also, it took 0.18 nM to reach a half-maximal effect in data set [2] (EC50). Further, in data set [3], the EC50 was found to be 0.1 nM.

Consider `CC[C@H](C)[C@@H](C(=O)N[C@@H](CC(C)C)C(=O)N[C@@H](CO)C(=O)N[C@@H](CO)C(=O)N[C@H](C(=O)N[C@@H](CCC(=O)O)C(=O)N[C@H](C(=O)NCC(=O)N[C@@H](CO)C(=O)N[C@@H](CCC(=O)O)C(=O)N[C@H](C(=O)N1CCC[C@H]1C(N)=O)[C@@H](C)O)C(C)C)[C@@H](C)O)N(C)C(=O)[C@H](C)NC(=O)CN(C)C(=O)[C@H](Cc1ccccc1)NC(=O)[C@H](CO)NC(=O)[C@H](CO)NC(=O)[C@H](CO)NC(=O)[C@H](CO)NC(=O)[C@H](CCCNC(=N)N)NC(=O)[C@H](Cc1c[nH]cn1)NC(=O)[C@H](CC(C)C)NC(=O)[C@H](Cc1ccccc1)NC(=O)[C@H](CCC(=O)O)NC(=O)[C@H](C)NC(=O)[C@H](CC(C)C)NC(=O)[C@H](CCCNC(=N)N)NC(=O)CNC(=O)[C@@H](NC(=O)[C@H](C)NC(=O)[C@@H]1CSSC[C@H](NC(=O)[C@H](CCCNC(=N)N)NC(=O)CC[C@H](NC(=O)CCCCCCCCCCCCCCCCCCC(=O)O)C(=O)O)C(=O)N[C@@H](CO)C(=O)N[C@@H]([C@@H](C)O)C(=O)N[C@@H](C)C(=O)N[C@@H]([C@@H](C)O)C(=O)N1)[C@@H](C)O` [Compound 132, [19CD]-isoGlu-RC()STATC()ATGRLAEFLHRSSSSF-Gly(Me)-A-Ile(Me)-LSSTEVGSETP-NH2] ({C20 diacid-γGlu}-RCSTATCATGRLAEFLHRSSSSF[Sar]A[NMeI]LSSTEVGSETP-NH2; disulfide 2-7), for which, in data set [1], the “Solubility, Acetate buffer pH 4” value is given as “SS (SS indicates solubility ≥ 1mg/ml)”; the “Solubility, Acetate buffer pH 5” value is listed as “SS (SS indicates solubility ≥ 1mg/ml)”; the “Solubility, Histidine buffer pH 6” value is on record as “SS (SS indicates solubility ≥ 1mg/ml)”; the “Solubility, Histidine buffer pH 7” value is reported as “SS (SS indicates solubility ≥ 1mg/ml)”. In data set [1], the “Solubility, Phosphate buffer pH 6” value is reported as “SS (SS indicates solubility ≥ 1mg/ml)”; the “Solubility, Phosphate buffer pH 7” value is reported as “SS (SS indicates solubility ≥ 1mg/ml)”; the “Solubility, Phosphate buffer pH 7.5” value is reported as “SS (SS indicates solubility ≥ 1mg/ml)”. For the same compound, the EC50 in data set [2] (cAMP induction in COS7 cells expressing hAMYR3, average of a minimum of 3 determinations, read-out: hAMY R3 EC50) was found to be 0.35 nM. In addition, the EC50 in data set [3] was determined as 0.22 nM.
